Where two headings read alike, the source gives them in different places.

These results are taken from patent US20220395500A1, “SMALL MOLECULE ACTIVATORS OF INTERFERON REGULATORY FACTOR 3 AND METHODS OF USE THEREOF” (Neuralexo, Inc., priority 2020, published 2022).

The test system of data set [1] is NF-κB-SEAP reporter in J774-Dual cells. Put plainly: J774-Dual NF-κB-SEAP reporter assay. As to conditions: for EC50: Mus musculus, read-out: J774 NFkB EC50. In kind it is cell-based, mouse. As to the method:
(§1) First, optimal assay conditions and assay quality in 384-well format were determined. As mentioned, the mouse macrophage J774 cell line (J774-Dual, InvivoGen) stably transfected with the same inducible reporters described above (e.g., IRF-Lucia luciferase and NF-κB-SEAP) was used. The responsiveness of the J774-Dual cell line was investigated in an array of assay conditions to obtain sensitive and reproducible results for the activation of the IRF and NF-κB reporters. An optimal plating density and conditions for these cells was established for these cells in a 384-well format. Assay work-flow is similar to that discussed above for the THP1-Dual assay without a need for cell differentiation. Thus, cells are seeded directly in growth medium and incubated at 37° C. in a 5% C02 incubator for 24 hours prior to the programmed treatments being added as described herein.
(§2) The primary high throughput screen used the HTS platform of human THP1 monocyte cells containing the IRF-Lucia luciferase and NFκB-SEAP (secreted embryonic alkaline phosphatase) dual reporter (THP1-Dual, Invivogen), enabling the simultaneous study of the IRF and NFκB signaling pathways respectively. As discussed, the Lucia luciferase reporter gene is under the control of an ISG54 (interferon-stimulated gene) minimal promoter in conjunction with five interferon-stimulated response elements (ISRE). The SEAP gene is driven by an IFNβ minimal promoter fused to five copies of the NFκB consensus transcriptional response element and three copies of the c-Rel binding site. Both IRF-Lucia luciferase and NFκB-SEAP reporter proteins are secreted and readily measurable in the cell culture supernatant when using QUANTI-Luc™ and QUANTI-Blue™ detection reagents, respectively. Identified “hits” were confirmed in a secondary screen with an 8-point dose response curve. Hits were further screened for activity in the mouse using the mouse J774 macrophage-like cell line containing the identical reporter constructs (J774-Dual, Invivogen).
(§3) The OTRADI Small Molecule Library of approximately 246,000 diverse compounds (see below for description) was screened using the THP1-Dual based HTS platform described above. All transfer steps in the screen are fully automated, thus reducing variability. Primary screening included a single data point or dose for each molecule. After data normalization was applied for each assay run, “hit” selection was performed on the plates that pass the quality control (QC) criterion. Hits were defined as samples having values above the activity cutoff determined based on noise level of the assay to reduce false positive rates. In the pilot study discussed above this activity value was >3σ above the ISRE mean with the added criteria of NFκB activation being lower than […] from the mean to identify IRF selective compounds. The ratio of ISRE:NFκB activity was also calculated as a selectivity index for prioritizing hit selection. Primary hits underwent secondary screening to determine the 50% effective concentration (EC50) and 50% cytotoxic concentration (CC50) of these agents using an 8-point dose-response curve in the human THP1-Dual cells. Cytotoxicity was measured in the plate using Cell Titer Glo (Promega). Identified candidate compounds were further screened (orthogonal screen) for cross species activity in the validated mouse J774-Dual assay using an 8-point dose-response format to determine EC50 and CC50 values as well as ISRE:NFκB ratios. A general process flow for the experimental design laid out above is depicted at FIG. 12.
For orientation: In a reporter assay the amount or activity of a reporter protein is the signal.

Data set [2] can be described thus: THP1-Dual cytotoxicity (Cell Titer Glo, ATP). The format is cell-based, human. As to conditions: human, THP1-Dual cells, read-out: Thp1 cytotox CC50. The essentials: (§4)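 CC50, the concentration killing half the cells, was derived from ATP-dependent CellTiter-Glo luminescence. Cells were THP1-Dual (human) and compound was tested as an 8-point dose-response series, with viability read in the same plate.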
A general note: ATP-based viability assays read luminescence as a measure of living cells.

The subject of data set [3] is IRF-Lucia luciferase reporter (ISRE) in THP1-Dual cells. The data set is described as follows: THP1-Dual IRF-Lucia luciferase reporter assay (ISRE activation). The format is cell-based, human. As to conditions: for EC50: Homo sapiens, THP1-Dual, read-out: THP1 IRF EC50. The essentials: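 Supernatant luminescence from the ISG54/ISRE-driven Lucia reporter was measured after 24 h exposure to 10 μM compound (LPS 313 ng/mL in control wells).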

A short description of data set [4]: J774-Dual cytotoxicity. As to conditions: mouse, J774-Dual cells, read-out: J774 cytotox CC50. The format is cell-based, mouse. The essentials:
(§5)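 CC50 derived from 8-point concentration series in mouse J774-Dual reporter cells, with viability read by CellTiter-Glo in the same plate. Run in parallel with EC50 and ISRE:NFκB ratio determination for cross-species confirmation.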

Data set [5] concerns THP1-Dual cells. The data set is described as follows: THP1-Dual cytotoxicity (Cell Titer Glo, ATP). The format is cell-based, human. As to conditions: Human Reporter Cell Line; read-out: Thp1 cytotox CC50. The essentials:
as §4

In data set [6] the test system is J774-Dual cells. Put plainly: J774-Dual cytotoxicity. In kind it is cell-based, mouse. As to conditions: Mouse Reporter Cell Line; read-out: J774 cytotox CC50. The essentials:
as §5

In data set [7] the test system is NF-κB-SEAP reporter in THP1-Dual cells. Put plainly: THP1-Dual NF-κB-SEAP reporter counterscreen. In kind it is cell-based, human. As to conditions: Homo sapiens, THP1-Dual, read-out: THP1 NFkB EC50. The method, then: THP1 Dual (InvivoGen) cell suspensions were cultured in RPMI 1640 (Hyclone, Logan, Utah) supplemented with 10% fetal bovine serum (Hyclone), 100 U/mL Normocin (Invivogen), and 50 U/mL PenStrep (Gibco, Dublin, Ireland) between a density of 7·10^5-2·10^6 cells/mL. Every other passage, media was supplemented with 5 U/mL Blasticidin and 100 U/mL Zeocin to maintain the expression constructs. White, flat-bottom 384-well plates (Greiner, Kremsmunster, Austria, 781080) were seeded with 2.5·10^4 cells/well in a total of 50 μL media containing 5 ng/mL phorbolmyristic acid (PMA) using a Matrix WellMate (Thermo Scientific) dispenser. After 48 hours of incubation at 37° C., media was removed using a BioTek ELx405 CW plate washer set to aspirate and wash each well three times with 65 μL 1×PBS. Plates were reloaded with 50 μL media without PMA and treatments added. Lipopolysaccharide in dimethylsulfoxide (DMSO) was transferred to control wells using a HP D300 microdispenser to a final concentration of 313 ng/mL. Compounds from chemical library plates were copied using a Sciclone (Caliper LifeSciences) mounted with a 384-pin transfer tool to obtain a final concentration of 10 μM. After incubation with treatments for 24 hours, 10 μL of supernatant media from each well was transferred into a white, flat-bottom 384-well plate for luminescence readout and a black-walled, clear flat-bottom 384-well plate for absorbance readout.
Specifically, to enable screening of novel chemical entities (NCEs) in a larger screening effort, a robust high-throughput cell-based assay system for primary hit identification of ISRE activators based on the above-mentioned target validation was desired. Human ISRE activity was verified using a THP-1 monocyte line containing the NF-κB-SEAP and IRF-Lucia luciferase dual reporter (THP1-Dual; Invivogen) that features two reporter genes, SEAP (secreted embryonic alkaline phosphatase) and Lucia luciferase, thereby enabling the simultaneous study of the NF-κB and IRF signalling pathways. The Lucia luciferase reporter is under the control of an ISG54 (interferon-stimulated gene) minimal promoter in conjunction with five IFN-stimulated response elements. The SEAP gene is driven by an IFN-β minimal promoter fused to five copies of the NF-κB consensus transcriptional response element and three copies of the c-Rel binding site. Both reporter proteins are readily measurable in the cell culture supernatant when using QUANTI-LUC™ and QUANTI-Blue SEAP detection reagents.
Using the experimental design and data analysis outlined above, optimized assay conditions were obtained. The responsiveness of the human THP-1 Dual cell line was evaluated in an array of assay conditions to obtain sensitive and reproducible results for the activation of IRF and NF-κB reporters. An optimal plating density and differentiation protocol for these cells was established in a 384-well format. All transfer steps are fully automated using high throughput robotic equipment. Briefly, cells are seeded in differentiation medium using a Matrix WellMate fitted with the WellMate Stacker (Thermo Scientific) and incubated at 37° C. with 5% CO2 for 48 h. Following differentiation, cells are washed using a BioTek ELx405 Select CW plate washer and growth medium added with the Matrix WellMate. Programmed control treatments are added to wells using a D300 digital dispenser fitted with T8+ dispense heads (Hewlett Packard) designed to dispense nanoliter quantities of material. Compounds from library plates are added using a pin tool fitted to a Sciclone ALH 3000 Workstation (Caliper Life Sciences) programmed with Maestro v4.4. After treatment, plates are returned to incubators for 24 hours. To measure reporter expression, supernatant is collected using the Sciclone and dispensed into 2 plates: 1) a white 384-well assay plate for Lucia luminescence measurements and 2) a clear-bottom black 384-well assay plate for SEAP absorbance measurements. […]

The subject of data set [8] is IRF-Lucia luciferase reporter (ISRE) in J774-Dual cells. Put plainly: J774-Dual IRF-Lucia luciferase reporter assay (ISRE activation). In kind it is cell-based, mouse. As to conditions: for EC50: Mus musculus, read-out: J774 IRF EC50. The method, then:
as §1, §2, §3

Where [9] appears, read: J774, Mouse Reporter Cell Line, 8-point dose response.
Setting [10] is: Human Reporter Cell Line, 8-point dose response.
Where [11] appears, read: J774, Mouse Reporter Cell Line J774.

Regarding `COc1ccc(C(=O)Nc2ccc(N3CCN(C(=O)c4cccs4)CC3)cc2)c2ccccc12` [NA-15], the values for the 50% effective concentration (EC50) in data set [1] (setting [9]) and in data set [3] (setting [10]) were 1.63 µM and 5.89 µM, respectively. Moreover, the CC50 in data set [2] (Human Reporter Cell Line) and in data set [4] (Mouse Reporter Cell Line) was greater than 25 µM each time.
For `O=C(Nc1ccc(N2CCN(C(=O)c3ccccc3Cl)CC2)cc1)c1ccc(OCc2ccccc2)cc1` [NA-49], the 50% cytotoxic concentration (CC50) is 27.9 µM in data set [5] and greater than 25 µM in data set [6].
`O=C(Nc1ccc(N2CCN(C(=O)c3ccccc3Cl)CC2)cc1)c1ccc(OCc2ccccc2)cc1` [NA-50]: the cytotoxic concentration (CC50) in data set [5] is 13.1 µM; in data set [4] (Mouse Reporter Cell Line), greater than 25 µM. In addition, in data set [3] (setting [10]), the EC50 is roughly 2.5 µM.
Regarding `O=C(Nc1ccc(N2CCN(C(=O)c3cccs3)CC2)cc1)c1ccc(OCc2ccccc2)cn1` [NA-60], the 50% effective concentration (EC50) was 2.27 µM in data set [7] (setting [10]), 2.23 µM in data set [3] (setting [10]) and 1.77 µM in data set [8] (setting [9]). The CC50 in data set [2] (Human Reporter Cell Line) stood at 23 µM. Moreover, the “J774 IRF % activation at peak” value in data set [8] (Mouse Reporter Cell Line) amounted to 33.91%.
Turning to `CCCCOc1nc(N)c2c(n1)N(Cc1cccc(CN3CCCC3)c1)CC(=O)N2` [NA-63], the EC50 in data set [7] (setting [10]) worked out at 2.94 µM; in data set [1] (setting [9]) it was 2.77 µM. Besides, the CC50 in data set [4] (Mouse Reporter Cell Line) was 73.9 µM.
Consider `COc1ccc(NC(=O)c2cc(NC(=O)c3cccs3)ccc2N2CCOCC2)cc1` [NB-14], for which the EC50 turned out to be 11.3 µM in data set [1] (setting [11]) and 6.9 µM in data set [3] (Human Reporter Cell Line THP1). Also, the 50% cytotoxic concentration (CC50) in data set [2] (Human Reporter Cell Line THP1) and in data set [4] (Mouse Reporter Cell Line J774) was greater than 25 µM each time.
For `COc1ccc(C(=O)Nc2cc(-c3nc4ccccc4s3)ccc2C)cc1OC` [ND-66], the EC50 in data set [7] (Human Reporter Cell Line THP1) is roughly 0.66 µM; in data set [8] (setting [11]) it was roughly 28.6 µM. Further, the figures for the CC50 in data set [2] (Human Reporter Cell Line THP1) and in data set [4] (Mouse Reporter Cell Line J774) were 17.9 µM and greater than 25 µM, respectively. Also, the “J774 IRF % activation at peak” value in data set [8] (Mouse Reporter Cell Line J774, at peak) is listed as roughly 32.86%.
Regarding `CCCN(CCC)C(=O)C1=Cc2ccc(-c3ccc(C(=O)N4CCCC4)cc3)cc2N=C(N)C1` [ND-88], the concentration giving a half-maximal response (EC50) in data set [7] (Human Reporter Cell Line THP1) was 1.72 µM; in data set [1] (setting [11]), 0.72 µM. For the same compound, the CC50 in data set [2] (Human Reporter Cell Line THP1) and in data set [4] (Mouse Reporter Cell Line J774) was greater than 25 µM in each case.
For `Cc1ccc(C(=O)Nc2cc(-c3nc4cc(C(C)C)ccc4o3)ccc2C)cc1C` [ND-103], the EC50 in data set [7] (Human Reporter Cell Line THP1) was 25 µM; in data set [1] (setting [11]), 9.17 µM.
Consider `COc1cccc2c1C(=O)c1c(O)c3c(c(O)c1C2=O)C[C@@](O)(C(C)=O)C[C@@H]3O[C@H]1C[C@H](N)[C@H](O)[C@H](C)O1` [OTR-0000353-001 (Daunorubicin), Daunorubicin, reference compound], for which the “NF-κB activation in J774 screen” value in data set [1] (J774-Dual pilot screen) is on record as “high NF-κB activity”. Moreover, the “Average ISRE/NFκB (Range)” value in data set [3] (human THP1 pilot screen, 10 μM, 3 screens) is 0.7 (0.2-1.0); in data set [8] (mouse J774-Dual pilot screen, 3 screens), 0.1 (0.09-0.18). The “Average ISRE % Activation” value is 4.0 +/− 1.8% in data set [3] (human THP1 pilot screen, 10 μM, 24 hours, percent of LPS activation signal +/− SD, 3 screens) and 5.4 +/− 1.6% in data set [8] (mouse J774-Dual pilot screen, percent of LPS activation signal +/− SD, 3 screens). Moreover, in data set [8] (pilot screens), the “ISRE activation in both THP1-Dual and J774-Dual screens” value is given as “cross-species ISRE activity”.

By EC50 is commonly meant the concentration at which the effect is half-maximal. What is called CC50 is the concentration giving 50% cytotoxicity.
